In general, inhibition refers to the percentage by which the read-out fell short of the control. A lower inhibition goes with a response near the control.

The nature of this test: HCV replicon assay (luciferase reporter, ET cell line). Type of test: cell-based. Conditions: Hepatitis C virus, HCV replicon luciferase activity in ET cells. Put shortly:
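ET cells carry a stable luciferase-ubiquitin-neo/NS3-5B subgenomic HCV replicon with adaptive mutations. Compounds (0.1 nM to […], 0.5% DMSO) were added 24 h after plating, and luciferase was read 48-72 h later. EC50 came from 10-point 2-fold dilutions fitted to a Hill equation; TC50 was measured in parallel by WST-1.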
For orientation: A replicon is a self-replicating genome or part of one, used to study replication in cells.
For `CN(Cc1cccs1)C(=O)c1cn2cc(-c3ccco3)cc(C(F)(F)F)c2n1` [Compound 146, 6-Furan-2-yl-8-trifluoromethylimidazo[1,2-a]pyridine-2-carboxylic Acid Methyl-thiophen-2-ylmethyl-amide], the inhibition at 10 µM worked out at 35.1%.

Take `C=C(C)c1cc(-c2ccccc2)cn2c(Cl)c(C(=O)NCc3cccs3)nc12` [Compound 358, 3-Chloro-8-isopropenyl-6-phenyl-imidazo [1,2-a]pyridine-2-carboxylic Acid (thiophen-2-ylmethyl)-amide]: the inhibition at 10 µM turned out to be 77.3%.

With `O=C(c1nc2c(C(F)(F)F)cc(-c3ccoc3)cn2c1Br)N1CCC(c2cccc(F)c2)C1` (stereo not drawn) [Compound 446, (3-Bromo-6-furan-3-yl-8-trifluoromethyl-imidazo[1,2-a]pyridin-2-yl)-(3-(3-fluoro-phenyl)-pyrrolidin-1-yl)-methanone], 10 µM produced 95.8% inhibition.

Consider `O=C(c1nc2c(C(F)(F)F)cc(-c3ccoc3)cn2c1Cl)N1CC[C@H](c2ccccc2)C1` [Compound 261, (3-Chloro-6-furan-3-yl-8-trifluoromethyl-imidazo[1,2-a]pyridin-2-yl)-(3-(R)-phenyl-pyrrolidin-1-yl)-methanone], for which the inhibition at 10 µM was 87.9%.

`O=C(NCc1nccs1)c1nc2c(C(F)(F)F)cc(-c3ccco3)cn2c1Cl` [Compound 182, 3-Chloro-6-furan-2-yl-8-trifluoromethyl-imidazo[1,2-a]pyridine-2-carboxylic acid (thiazol-2-ylmethyl)-amide] gave an inhibition at 10 µM of 80.8%.

`O=C(c1nc2c(C(F)(F)F)cc(-c3ccoc3)cn2c1Cl)N1CC=C(c2ccncc2F)CC1` [Compound 572, (3-Chloro-6-furan-3-yl-8-trifluoromethyl-imidazo[1,2-1]pyridine-2-yl)-(3′-fluoro-3,6-dihydro-2H-[4,4′]bipyridinyl-1-yl)-methanone] yielded an inhibition at 10 µM of 98.2%.

With `CC(C)c1cc(-c2ccccc2)cn2cc(C(=O)N3CCC(c4cccc(F)c4)C3)nc12` (stereo not drawn) [Compound 646, [3-(3-Fluoro-phenyl)-pyrrolidin-1-yl]-(8-isopropyl-6-phenyl-imidazo[1,2-a]pyridin-2-yl)-methanone], the inhibition at 10 µM is 42.4%.

Consider `O=C(NCc1cccs1)c1nc2c(C(F)(F)F)cc(-c3ccccc3)nc2[nH]1` [Compound 103, 5-Phenyl-7-trifluoromethyl-3H-imidazo[4,5-b]pyridine-2-carboxylic acid (thiophen-2-ylmethyl)-amide], for which 10 µM produced 54.7% inhibition.

In the case of `O=C(c1nc2c(C(F)(F)F)cc(-c3cn[nH]c3)cn2c1Cl)N1CCC(c2cccc(F)c2)C1` (stereo not drawn) [Compound 258, [3-Chloro-6-(1H-pyrazol-4-yl)-8-trifluoromethyl-imidazo[1,2-a]pyridin-2-yl]-[3-(3-fluoro-phenyl)-pyrrolidin-1-yl]-methanone], the inhibition at 10 µM was 91%.

For `CN(C)CCNC(=O)Cc1c(C(=O)N2CCC(c3ccc(F)cc3)C2)nc2c(C(F)(F)F)cc(-c3ccoc3)cn12` (stereo not drawn) [Compound 241, N-(2-Dimethylamino-ethyl)-2-{2-[3-(4-fluoro-phenyl)-pyrrolidine-1-carbonyl]-6-furan-3-yl-8-trifluoromethyl-imidazo[1,2-a]pyridin-3-yl}-acetamide], the inhibition at 10 µM was 100%.

As for `O=C(c1nc2c(C(F)(F)F)cc(-c3cn[nH]c3)cn2c1Br)N1CC=C(c2ccc(F)cc2)CC1` [Compound 608, [3-Bromo-6-(1H-pyrazol-4-yl)-8-trifluoromethyl-imidazo[1,2-a]pyridin-2-yl]-[4-(4-fluoro-phenyl)-3,6-dihydro-2H-pyridin-1-yl]-methanone], testing at 10 µM gave an inhibition of 62.7%.

Regarding `O=C(NCCc1ccccn1)c1nc2c(C(F)(F)F)cc(-c3ccoc3)cn2c1Cl` [Compound 554, 3-Chloro-6-furan-3-yl-8-trifluoromethyl-imidazo[1,2-a]pyridine-2-carboxylic acid (2-pyridin-2-yl-ethyl)-amide], testing at 10 µM gave an inhibition of 97.4%.

The molecule `O=C(c1nc2c(C(F)(F)F)cc(-c3cn[nH]c3)cn2c1Br)N1CC=C(c2ccc(F)cc2)C1` [Compound 438, [3-Bromo-6-(1H-pyrazol-4-yl)-8-trifluoromethyl-imidazo[1,2-a]pyridin-2-yl]-[3-(4-fluoro-phenyl)-2,5-dihydro-pyrrol-1-yl]-methanone] yielded an inhibition at 10 µM of 97.8%.

`O=C(c1cn2cc(-c3ccccc3)cc(C(F)(F)F)c2n1)N1CCC(c2cccc(F)c2)C1` (stereo not drawn) [Compound 639, [3-(3-Fluoro-phenyl)-pyrrolidin-1-yl]-(6-phenyl-8-trifluoromethyl-imidazo[1,2-a]pyridin-2-yl)-methanone] returned an inhibition at 10 µM of 71.9%.

`O=C(NCc1cccs1)c1cc2cc(-c3ccccc3)cc(N3CCOCC3)n2n1` [Compound 148, 7-Morpholin-4-yl-5-phenyl-pyrazolo[1,5-a]pyridine-2-carboxylic Acid (thiophen-2-ylmethyl)-amide] registered an inhibition at 10 µM of 27.7%.

`O=C(c1nc2c(C(F)(F)F)cc(-c3ccoc3)cn2c1Cl)N1CCC(n2c(=O)[nH]c3ccccc32)CC1` [Compound 552, 1-[1-(3-Chloro-6-furan-3-yl-8-trifluoromethyl-imidazo[1,2-a]pyridine-2-carbonyl)-piperidin-4-yl]-1,3-dihydro-benzoimidazol-2-one]: 10 µM produced 6% inhibition.

`CN1CCN(C(=O)c2nc3c(C(F)(F)F)cc(-c4ccco4)cn3c2Cl)C(c2ccccc2)C1` (stereo not drawn) [Compound 320, (3-Chloro-6-furan-2-yl-8-trifluoromethyl-imidazo[1,2-a]pyridin-2-yl)-(4-methyl-2-phenyl-piperazin-1-yl)-methanone] gave an inhibition at 10 µM of 0.6%.

With `NC(=O)Cc1c(C(=O)N2CCC(c3ccc(F)cc3)C2)nc2c(C(F)(F)F)cc(-c3ccoc3)cn12` (stereo not drawn) [Compound 239, 2-{2-[3-(4-Fluoro-phenyl)-pyrrolidine-1-carbonyl]-6-furan-3-yl-8-trifluoromethyl-imidazo[1,2-a]pyridin-3-yl}-acetamide], the inhibition at 10 µM turned out to be 53%.

On to `O=C(Cc1ccccc1)NCc1cn2cc(-c3ccoc3)cc(C(F)(F)F)c2n1` [Compound 390, N-(6-Furan-3-yl-8-trifluoromethyl-imidazo[1,2-a]pyridin-2-ylmethyl)-2-phenyl-acetamide], for which 10 µM produced 95.8% inhibition.

Turning to `O=C(c1nc2c(C(F)(F)F)cc(-c3ccco3)cn2c1Cl)N1CCCC(c2ccccc2)C1` (stereo not drawn) [Compound 216, (3-Chloro-6-furan-2-yl-8-trifluoromethyl-imidazo[1,2-a]pyridin-2-yl)-(3-phenyl-piperidin-1-yl)-methanone], testing at 10 µM gave an inhibition of 60.3%.

As to `O=C(NCc1cccs1)c1nn2c(I)cc(-c3ccccc3)cc2c1I` [Compound 119, 3,7-diiodo-5-phenyl-pyrazolo[1,5-a]pyridine-2-carboxylic Acid (thiophen-2-ylmethyl)-amide], the inhibition at 10 µM was determined as 71.5%.

On to `Cc1noc(Cc2c(C(=O)N3CCC(c4ccc(F)cc4)C3)nc3c(C(F)(F)F)cc(-c4ccoc4)cn23)n1` (stereo not drawn) [Compound 243, [3-(4-Fluoro-phenyl)-pyrrolidin-1-yl]-[6-furan-3-yl-3-(3-methyl-[1,2,4]oxadiazol-5-ylmethyl)-8-trifluoromethyl-imidazo[1,2-a]pyridin-2-yl]-methanone], for which the inhibition at 10 µM was found to be 86.2%.

As to `O=C(NCCc1cccc(F)c1)c1nc2c(C(F)(F)F)cc(-c3ccoc3)cn2c1Cl` [Compound 406, 3-Chloro-6-furan-3-yl-8-trifluoromethyl-imidazo[1,2-a]-pyridine-2-carboxylic acid [2-(3-fluoro-phenyl)-ethyl]-amide], 10 µM produced 82.5% inhibition.

The molecule `CC(C)c1cc(-c2ccccc2)cn2c(Br)c(C(=O)N3CCC(c4cccc(F)c4)C3)nc12` (stereo not drawn) [Compound 647, (3-Bromo-8-isopropyl-6-phenyl-imidazo[1,2-a]pyridin-2-yl)-[3-(3-fluoro-phenyl)-pyrrolidin-1-yl]-methanone] registered an inhibition at 10 µM of 58.6%.

As for `O=S(=O)(Cc1ccccc1)Nc1nc2c(C(F)(F)F)cc(-c3ccco3)cn2c1Cl` [Compound 363, N-(3-Chloro-6-furan-2-yl-8-trifluoromethyl-imidazo[1,2-a]pyridin-2-yl)-C-phenyl-methanesulfonamide], the inhibition at 10 µM was 12.6%.

With `O=C(c1nc2c(C(F)(F)F)cc(-c3ccoc3)cn2c1Cl)N1CC(NS(=O)(=O)c2cccs2)C1` [Compound 499, Thiophene-2-sulfonic acid [1-(3-chloro-6-furan-3-yl-8-trifluoromethyl-imidazo[1,2-a]pyridine-2-carbonyl)-azetidin-3-yl]-amide], 10 µM produced 93.4% inhibition.

For `O=C(c1nc2c(C(F)(F)F)cc(-c3ccoc3)cn2c1Cl)N1CC=C(c2c[nH]cn2)CC1` [Compound 558, (3-Chloro-6-furan-3-yl-8-trifluoromethyl-imidazo[1,2-a]pyridin-2-yl)-[4-(1H-imidazol-4-yl)-3,6-dihydro-2H-pyridin-1-yl]-methanone], at 10 µM the inhibition was 89.3%.

Molecule `COc1ccc(F)c(C2=CCN(C(=O)c3nc4c(C(F)(F)F)cc(-c5ccoc5)cn4c3Cl)CC2)c1F` [Compound 616, (3-Chloro-6-furan-3-yl-8-trifluoromethyl-imidazo[1,2-a]pyridin-2-yl)-[4-(2,6-difluoro-3-methoxy-phenyl)-3,6-dihydro-2H-pyridin-1-yl]-methanone] yielded an inhibition at 10 µM of 64.9%.

With `O=C(NCc1ccco1)c1nc2c(C(F)(F)F)cc(-c3ccco3)cn2c1Cl` [Compound 158, 3-Chloro-6-furan-2-yl-8-trifluoromethyl-imidazo[1,2-a]pyridine-2-carboxylic acid (furan-2-ylmethyl)-amide], the inhibition at 10 µM was determined as 88.5%.

Molecule `CS(=O)(=O)N1CC(NC(=O)c2nc3c(C(F)(F)F)cc(-c4ccoc4)cn3c2Cl)C1` [Compound 510, 3-Chloro-6-furan-3-yl-8-trifluoromethyl-imidazo[1,2-a]pyridine-2-carboxylic Acid (1-methanesulfonyl-azetidin-3-yl)-amide] gave an inhibition at 10 µM of 24%.

The record behind these values is patent publication US20120121540A1 (priority 2007, published 2012).
